# Literature values as cited in patent US8703048B2, “Buffered swelling media for radiation sterilized hydrophilic coatings” (Coloplast A/S, priority 2008, dated 2014).
# Details: in water
SMILES,pKa1,pKa2,pKa3
Nc1ccccc1C(=O)O [anthranilic acid],2.11,4.95,–
NCCC(=O)N[C@@H](Cc1cnc[nH]1)C(=O)O [carnosine],2.73,6.87,9.73
O=C(O)CCCC(=O)O [glutaric acid],4.31,5.41,–

# Same assay, conditions: in water; single value given
row,SMILES,pKa
1,O=C(O)CCO [3-hydroxypropionic acid],3.73
2,N#CO [cyanic acid],3.92
3,O=C(O)[C@H](O)[C@@H](O)[C@H](O)[C@H](O)CO [gluconic acid],3.56
4,O=C(O)CNC(=O)c1ccccc1 [hippuric acid],3.80
5,F [hydrofluoric acid],3.45
